# According to ChEMBL document CHEMBL3232786, “Therapeutic utility of cannabinoid receptor type 2 (CB(2)) selective agonists” (J Med Chem, 2013):
# Legend:
# Cannabinoid receptor 2 [1] = biological target: T1, Cannabinoid receptor 2 (Homo sapiens, UniProt P34972); test: Agonist activity at human CB2 receptor assessed as inhibition of forskolin-induced cAMP production preincubated for 15 mins followed by forskolin challenge measured after 30 mins by HTRF assay; format: functional
# Cannabinoid receptor 2 [2] = biological target: T1, Cannabinoid receptor 2; test: Agonist activity at human CB2 receptor transfected in CHO-K1 cells assessed as cAMP change; format: functional, cell-based
# Cannabinoid receptor 1 [3] = biological target: T2, Cannabinoid receptor 1 (Homo sapiens, UniProt P21554); test: Agonist activity at human CB1 receptor assessed as inhibition of forskolin-induced cAMP production preincubated for 15 mins followed by forskolin challenge measured after 30 mins by HTRF assay; format: functional
# Homo sapiens = organism: Homo sapiens; test: Selectivity ratio of Ki for human CB1 receptor to Ki for human CB2 receptor
# Cannabinoid receptor 1 [4] = biological target: T2, Cannabinoid receptor 1; test: Binding affinity to human CB1 receptor
# Cannabinoid receptor 2 [5] = biological target: T1, Cannabinoid receptor 2; test: Binding affinity to human CB2 receptor
# Cannabinoid receptor 2 [6] = biological target: T1, Cannabinoid receptor 2; test: Agonist activity at human CB2 receptor expressed in Sf9 membranes assessed as effect on [35S]-GTPgammaS binding after 30 mins by scintillation counting; format: functional, cell membranes
# Cannabinoid receptor 1 [7] = biological target: T2, Cannabinoid receptor 1; test: Agonist activity at human CB1 receptor expressed in CHO-K1 cells assessed as inhibition of forskolin-induced cAMP accumulation by TR-FRET assay; format: functional, cell-based
# Cannabinoid receptor 1 [8] = biological target: T2, Cannabinoid receptor 1; test: Binding affinity to CB1 receptor (unknown origin)
# Cannabinoid receptor 2 [9] = biological target: T1, Cannabinoid receptor 2; test: Binding affinity to CB2 receptor (unknown origin)
# Cannabinoid receptor 2 [10] = biological target: T1, Cannabinoid receptor 2; test: Agonist activity at human CB2 receptor expressed in Saccharomyces cerevisiae MMY23 using fluorescein di-beta-D-glucopyranoside as substrate after 24 hrs by fluorescence-based assay
# [11] = Selectivity ratio of Ki for rat CB1 receptor to Ki for human CB2 receptor
# Cannabinoid receptor 1 [12] = biological target: Cannabinoid receptor 1 (Rattus norvegicus, UniProt P20272); test: Binding affinity to rat CB1 receptor
# Cannabinoid receptor 2 [13] = biological target: T1, Cannabinoid receptor 2; test: Displacement of [3H]-CP55940 from human CB2 receptor expressed in CHO-K1 cells by liquid scintillation counting; format: cell-based
# Cannabinoid receptor 1 [14] = biological target: T2, Cannabinoid receptor 1; test: Displacement of [3H]-CP55940 from human CB1 receptor expressed in CHO-K1 cells by liquid scintillation counting; format: cell-based; settings: read-out: EC50 (the source's name)
# Cannabinoid receptor 2 [15] = biological target: T1, Cannabinoid receptor 2; test: Agonist activity at human CB2 receptor expressed in human SK-N-MC cells by CRE-beta galactosidase reporter gene assay; format: functional, cell-based
# Cannabinoid receptor 1 [16] = biological target: T2, Cannabinoid receptor 1; test: Agonist activity at human CB1 receptor expressed in human SK-N-MC cells by CRE-beta galactosidase reporter gene assay; format: functional, cell-based
# T2 sequence (P21554 whole entry): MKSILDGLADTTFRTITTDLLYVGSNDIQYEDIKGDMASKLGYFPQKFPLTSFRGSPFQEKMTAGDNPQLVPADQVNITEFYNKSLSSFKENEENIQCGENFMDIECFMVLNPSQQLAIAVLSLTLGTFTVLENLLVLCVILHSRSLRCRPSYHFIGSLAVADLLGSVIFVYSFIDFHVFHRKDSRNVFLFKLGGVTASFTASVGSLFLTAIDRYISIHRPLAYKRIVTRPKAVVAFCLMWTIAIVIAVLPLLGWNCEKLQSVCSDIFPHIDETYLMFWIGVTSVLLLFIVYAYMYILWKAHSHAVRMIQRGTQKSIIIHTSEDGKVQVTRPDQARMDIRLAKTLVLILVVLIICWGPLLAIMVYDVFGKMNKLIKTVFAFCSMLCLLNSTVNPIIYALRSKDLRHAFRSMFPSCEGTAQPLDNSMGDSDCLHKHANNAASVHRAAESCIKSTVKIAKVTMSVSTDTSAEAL
# T1 sequence (P34972 whole entry): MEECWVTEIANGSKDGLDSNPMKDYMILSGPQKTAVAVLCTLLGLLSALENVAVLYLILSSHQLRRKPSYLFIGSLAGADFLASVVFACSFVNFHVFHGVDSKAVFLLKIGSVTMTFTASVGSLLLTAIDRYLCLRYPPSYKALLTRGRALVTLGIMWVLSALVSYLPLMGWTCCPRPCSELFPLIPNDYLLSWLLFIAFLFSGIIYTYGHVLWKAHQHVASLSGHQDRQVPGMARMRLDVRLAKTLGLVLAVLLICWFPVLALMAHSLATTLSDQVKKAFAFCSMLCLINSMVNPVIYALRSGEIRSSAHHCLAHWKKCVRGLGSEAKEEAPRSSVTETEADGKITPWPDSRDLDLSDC
# Chain of Cannabinoid receptor 1 (Rattus norvegicus, UniProt P20272) (P20272 whole entry): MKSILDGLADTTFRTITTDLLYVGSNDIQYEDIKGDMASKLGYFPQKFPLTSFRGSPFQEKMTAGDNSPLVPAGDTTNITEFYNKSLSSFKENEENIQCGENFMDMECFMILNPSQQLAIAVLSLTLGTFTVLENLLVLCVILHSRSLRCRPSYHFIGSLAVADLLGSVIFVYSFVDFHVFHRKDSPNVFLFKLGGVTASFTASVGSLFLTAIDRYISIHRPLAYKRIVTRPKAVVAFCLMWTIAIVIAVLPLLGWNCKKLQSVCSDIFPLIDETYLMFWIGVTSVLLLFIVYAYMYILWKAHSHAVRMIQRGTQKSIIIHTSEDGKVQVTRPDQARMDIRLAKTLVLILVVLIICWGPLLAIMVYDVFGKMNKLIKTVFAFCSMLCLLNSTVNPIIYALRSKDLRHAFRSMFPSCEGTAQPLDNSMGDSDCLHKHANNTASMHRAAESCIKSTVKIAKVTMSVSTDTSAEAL
structure (smiles),measurement,setting,value
Clc1ccc(-c2nc(N3CCCCC3)c3ccccc3n2)c(Cl)c1,Ki,Cannabinoid receptor 2 [1],< 1000 nM
FC1(F)CCN(Cc2nc(-c3cccc(C(F)(F)F)c3)n3ccccc23)CC1,EC50,Cannabinoid receptor 2 [1],17 nM
CC1CN1S(=O)(=O)c1ccc2c(c1)C1(OCCCO1)C(=O)N2CC1CC1 (centres undefined),EC50,Cannabinoid receptor 2 [2],2 nM
CN(C1CCOCC1)C(C)(C)C(=O)Nc1cc(C(C)(C)CO)no1,EC50,Cannabinoid receptor 1 [3],> 50000 nM
CC1OCc2sc(NC(=O)C3C(C)(C)C3(C)C)c(C(=O)N3CC(F)(F)C3)c21 (centres undefined),Ratio Ki,Homo sapiens,10
CCCCCCC(C)(C)c1cc(O)c2c(c1)OC(C)(C)C1CCC(=O)CC21 (centres undefined),Ratio Ki,Homo sapiens,1.2
Cc1sc(NC(=O)N2CCCN(C(=O)C3CCC(F)(F)CC3)CC2)nc1C(C)(C)C,EC50,Cannabinoid receptor 2 [1],0.7 nM
CCCCCCC(C)(C)c1cc(O)c([C@H]2CC(=O)[C@H]3C[C@@H]2C3(C)C)c(OC(=O)/C=C/C(=O)O)c1 [PRS-211375],Ratio Ki,Homo sapiens,37
same,Ki,Cannabinoid receptor 1 [4],334 nM
same,Ki,Cannabinoid receptor 2 [5],9 nM
Cc1c(C(=O)c2cccc(Cl)c2Cl)c2ccsc2n1CCN1CCOCC1,EC50,Cannabinoid receptor 2 [6],< 100 nM
CCCCCCC(C)(C)c1cc(OC)c2c(c1)OC(C)(C)[C@@H]1CC=C(C)C[C@@H]21,Ratio Ki,Homo sapiens,> 790
O=S(=O)(c1ccc2c(c1)C1C3CCC(C3)C1C(c1ccccc1)N2)N1CCOCC1 (centres undefined),EC50,Cannabinoid receptor 1 [7],> 10000 nM
COCCN1CC(C)(C)S/C1=N\C(=O)c1cc(Cl)ccc1OC,Ratio Ki,Homo sapiens,10
COc1cccc2c(C(=O)N[C@@H]3C(C)(C)[C@@H]4CC[C@@]3(C)C4)nn(CCN3CCOCC3)c12,Ki,Cannabinoid receptor 1 [8],24 nM
same,Ki,Cannabinoid receptor 2 [9],2 nM
CCCCCn1cc(C(=O)c2cccc3ccccc23)c2ccccc21,Ki,Cannabinoid receptor 1 [8],9.5 nM
COc1ccc(C(=O)c2cc3cc(C)n(CCN4CCOCC4)c3s2)cc1,EC50,Cannabinoid receptor 2 [6],< 100 nM
O=S(=O)(c1ccc(Cl)cc1)c1cnc2c(NCC3CCOCC3)cccc2c1,EC50,Cannabinoid receptor 2 [10],< 1000 nM
CCCCCc1ccc2c(c1)OC(C)(C)[C@@H]1CC=C(C)C[C@@H]21,Ratio Ki,[11],> 312
same,Ki,Cannabinoid receptor 2 [5],32 nM
same,Ki,Cannabinoid receptor 1 [12],> 10000 nM
CC(=O)N1CCC(Cn2c(C(C)(C)C)nc3cc(S(=O)(=O)C4CCCC4)ccc32)CC1,EC50,Cannabinoid receptor 2 [1],3 nM
CCCCCCC(C)(C)c1cc(O)c2c(c1)OC(C)(C)[C@@H]1CC=C(OO)C[C@@H]21,Ratio Ki,[11],38
same,Ki,Cannabinoid receptor 2 [5],0.032 nM
same,Ki,Cannabinoid receptor 1 [12],1.2 nM
CC(C)(C)c1cn(C[C@H]2CCCO2)/c(=N/C(=O)c2cc(C(F)(F)F)ccc2OCc2ccccn2)s1,EC50,Cannabinoid receptor 2 [13],1 nM
same,IC50,Cannabinoid receptor 1 [14],> 27000 nM
CCCCC/C=C\C/C=C\C/C=C\C/C=C\CCCCOC(CO)CO,Ki,Cannabinoid receptor 2 [5],3000 nM
COc1cccc2c(C(=O)c3ccc(Br)c4ccccc34)c(C)n(CCN3CCOCC3)c12,Ki,Cannabinoid receptor 1 [8],> 1000 nM
O=C(Nc1sc2c(c1C(=O)N1CCC1)CC1CCC2O1)c1c(F)cccc1C(F)(F)F (centres undefined),Ratio Ki,Homo sapiens,10
CNC(=O)[C@@H](NC(=O)c1nc(-c2ccccc2)n2c1CN(C)CCC2)C(C)(C)C,EC50,Cannabinoid receptor 2 [1],10 nM
same,EC50,Cannabinoid receptor 1 [3],> 10000 nM
COc1ccc(-c2nnc(NC(=O)C(C)(C)S(=O)(=O)C3CCOCC3)[nH]2)cc1,EC50,Cannabinoid receptor 1 [3],> 20000 nM
CCCC(C)(C)c1ccc2c(c1)OC(C)(C)[C@@H]1CC=C(C)C[C@@H]21,Ratio Ki,[11],200
CCCCCCC(C)(C)c1cc(O)c2c(c1)OC(C)(C)[C@@H]1CC=C(CO)C[C@@H]21,Ki,Cannabinoid receptor 1 [4],0.73 nM
Cc1ccc2c(c1)Cc1c(C(=O)NN3CCCCC3)nn(-c3ccc(Cl)cc3Cl)c1-2,Ki,Cannabinoid receptor 2 [9],0.037 nM
C=C1CC[C@@H]2[C@@H](C1)c1c(OC)cc(C(C)(C)CCCCCC)cc1OC2(C)C,Ratio Ki,Homo sapiens,> 1000
CCCn1c(C)c(C(=O)c2cccc3cc(OC)ccc23)c2ccccc21,Ki,Cannabinoid receptor 1 [8],> 10000 nM
COc1cccc2c(C(=O)N[C@@H]3C(C)(C)[C@@H]4CC[C@@]3(C)C4)cn(CCN3CCOCC3)c12,Ki,Cannabinoid receptor 1 [8],245 nM
same,Ki,Cannabinoid receptor 2 [9],11 nM
C[C@H](NS(=O)(=O)/C=C/c1n[nH]c2c1CCCC[C@@H]2Cc1cccc(F)c1)c1ccccc1,Ratio Ki,Homo sapiens,> 550
same,EC50,Cannabinoid receptor 2 [15],9 nM
same,EC50,Cannabinoid receptor 1 [16],> 5000 nM
CCCCCCC(C)(C)c1cc(O)c2c(c1)OC(C)(C)[C@@H]1CC=C(C)C[C@@H]21,Ratio Ki,Homo sapiens,1.7
CC(C)(CO)c1cc(NC(=O)C(C)(C)S(=O)(=O)C2CCOCC2)on1,EC50,Cannabinoid receptor 1 [3],> 50000 nM
O=C(N[C@H](CO)c1ccccc1)c1n[nH]c2c1CCCC[C@H]2Cc1cccc(Cl)c1,EC50,Cannabinoid receptor 2 [15],12 nM
same,EC50,Cannabinoid receptor 1 [16],> 5000 nM
CCCn1c(C)c(C(=O)c2cc3ccsc3n2CCC)c2ccccc21,EC50,Cannabinoid receptor 2 [6],< 100 nM
